Assay results published in ChEMBL document CHEMBL1201862, “PubChem BioAssay data set” (2004).
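Interpolation was linear, between the two tested concentrations surrounding the appropriate level; five concentrations were tested over 48 hours in 96-well plates. Here, GI50 denotes the concentration required for 50% inhibition of growth.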 Active and inactive are the calls of the source. No stated cut-off is given here; in the data, active = GI50 up to about 1.1 µM and inactive = higher.

What was measured:
Test in all cases: DTP human tumour cell line panel, 48 h
KM12 = tested on: KM12
IGROV-1 = tested on: IGROV-1
HOP-92 = tested on: HOP-92
EKVX = tested on: EKVX
UACC-62 = tested on: UACC-62
MDA-MB-435 = tested on: MDA-MB-435
HL-60 = tested on: HL-60
SK-MEL-2 = tested on: SK-MEL-2
HT-29 = tested on: HT-29
Hs-578T = tested on: Hs-578T
SR = tested on: SR
Malme-3M = tested on: Malme-3M
KM-20L2 = tested on: KM-20L2
SNB-78 = tested on: SNB-78
DMS-114 = tested on: DMS-114
OVCAR-5 = tested on: OVCAR-5
TK-10 = tested on: TK-10
LOX IMVI = tested on: LOX IMVI
NCI-H522 = tested on: NCI-H522
NCI-H460 = tested on: NCI-H460
PC-3 = tested on: PC-3
SF-268 = tested on: SF-268
HOP-62 = tested on: HOP-62
K562 = tested on: K562
A498 = tested on: A498
DU-145 = tested on: DU-145
M19-MEL = tested on: M19-MEL
A549 = tested on: A549
XF498 = tested on: XF498
DLD-1 = tested on: DLD-1
SN12C = tested on: SN12C
U-251 = tested on: U-251
MCF7 = tested on: MCF7
COLO 205 = tested on: COLO 205
SNB-19 = tested on: SNB-19
HCT-116 = tested on: HCT-116
BT-549 = tested on: BT-549
CAKI-1 = tested on: CAKI-1
786-0 = tested on: 786-0
MDA-MB-231 = tested on: MDA-MB-231
OVCAR-8 = tested on: OVCAR-8
OVCAR-4 = tested on: OVCAR-4
UO-31 = tested on: UO-31
DMS-273 = tested on: DMS-273
NCI-H23 = tested on: NCI-H23
CCRF-CEM = tested on: CCRF-CEM
SF-295 = tested on: SF-295
HCT-15 = tested on: HCT-15
SK-MEL-28 = tested on: SK-MEL-28
RXF 393 = tested on: RXF 393
MDA-N = tested on: MDA-N
UACC-257 = tested on: UACC-257
SK-OV-3 = tested on: SK-OV-3
SW-620 = tested on: SW-620
HCC 2998 = tested on: HCC 2998
NCI/ADR-RES = tested on: NCI/ADR-RES
RPMI-8226 = tested on: RPMI-8226
SF-539 = tested on: SF-539
NCI-H226 = tested on: NCI-H226
T47D = tested on: T47D
M14 = tested on: M14
ACHN = tested on: ACHN
SK-MEL-5 = tested on: SK-MEL-5

Q: What does the source list for `C[C@@](O)(/C=C/[C@H]1CC=CC(=O)O1)[C@@H](C[C@@H](O)\C=C/C=C\C=C\CO)OP(=O)(O)O` [FOSTRIECIN SODIUM]?
A: GI50 (KM12): 6.08 µM (inactive); GI50 (IGROV-1): 5.14 µM (inactive); GI50 (HOP-92): 2.27 µM (inactive); GI50 (EKVX): 16.5 µM (inactive); GI50 (UACC-62): 3.77 µM (inactive); GI50 (MDA-MB-435): 1.28 µM (inactive); GI50 (HL-60): 1.1 µM (active); GI50 (SK-MEL-2): 11.2 µM (inactive); GI50 (HT-29): 1.75 µM (inactive); GI50 (Hs-578T): 5.51 µM (inactive); GI50 (SR): 3.99 µM (inactive); GI50 (Malme-3M): 4.74 µM (inactive); GI50 (KM-20L2): 1.03 µM (active); GI50 (SNB-78): 15 µM (inactive); GI50 (DMS-114): 13 µM (inactive); GI50 (OVCAR-5): 6.31 µM (inactive); GI50 (TK-10): 12.8 µM (inactive); GI50 (LOX IMVI): 2.16 µM (inactive); GI50 (NCI-H522): 17.3 µM (inactive); GI50 (NCI-H460): 10.4 µM (inactive); GI50 (PC-3): 4.48 µM (inactive); GI50 (SF-268): 16.4 µM (inactive); GI50 (HOP-62): 4.9 µM (inactive); GI50 (K562): 1.6 µM (inactive); GI50 (A498): 23.9 µM (inactive); GI50 (DU-145): 3.21 µM (inactive); GI50 (M19-MEL): 4.17 µM (inactive); GI50 (A549): 9.66 µM (inactive); GI50 (XF498): 52.5 µM (inactive); GI50 (DLD-1): 13.2 µM (inactive); GI50 (SN12C): 9.33 µM (inactive); GI50 (U-251): 17.1 µM (inactive); GI50 (MCF7): 2.97 µM (inactive); GI50 (COLO 205): 3.08 µM (inactive); GI50 (SNB-19): 32.3 µM (inactive); GI50 (HCT-116): 3.26 µM (inactive); GI50 (BT-549): 9.59 µM (inactive); GI50 (CAKI-1): 1.81 µM (inactive); GI50 (786-0): 5.36 µM (inactive); GI50 (MDA-MB-231): 22.3 µM (inactive); GI50 (OVCAR-8): 9.48 µM (inactive); GI50 (OVCAR-4): 5.27 µM (inactive); GI50 (UO-31): 11 µM (inactive); GI50 (DMS-273): 6.19 µM (inactive); GI50 (NCI-H23): 10.2 µM (inactive); GI50 (CCRF-CEM): 2.12 µM (inactive); GI50 (SF-295): 3.94 µM (inactive); GI50 (HCT-15): 5.74 µM; GI50 (SK-MEL-28): 7.28 µM (inactive); GI50 (RXF 393): 4.11 µM (inactive); GI50 (MDA-N): 0.828 µM (active); GI50 (UACC-257): 4.94 µM (inactive); GI50 (SK-OV-3): 10.2 µM (inactive); GI50 (SW-620): 9.29 µM (inactive); GI50 (HCC 2998): 4.28 µM (inactive); GI50 (NCI/ADR-RES): 12.8 µM (inactive); GI50 (RPMI-8226): 1.1 µM (active); GI50 (SF-539): 7.23 µM (inactive); GI50 (NCI-H226): 7.4 µM (inactive); GI50 (T47D): 48.1 µM (inactive); GI50 (M14): 0.634 µM (active); GI50 (ACHN): 4.51 µM (inactive); GI50 (SK-MEL-5): 4.67 µM (inactive)
